Measurements published in article PMC6199744, “Development of Chemical Proteomics for the Folateome and Analysis of the Kinetoplastid Folateome” (ACS Infectious Diseases, 2018).
Several values for one entry are separate records, joined by “and”; a condition that tells them apart may be missing. Equal values may be shown once. Read-outs that look alike come from different tables or passages of the source.

Test system: L. major lysate proteins
Assay: Multitargeted bead mixture chemoproteomics, single concentration competition, proteome-wide
Format: binding

Compound: NCCCNc1ccc(C(=O)NC(CCC(=O)O)C(=O)O)cc1 (stereo not drawn) [compound 7]
- fold change: 0.99
- fold change relative to vehicle control: 1.03 and 1.04
- fold change vs vehicle control: 1.19 and 1.04 and 1.12
- protein inhibition, any captured protein (Figure 8) (bead mixture, L. major lysate): no protein inhibition >30%
- fold change vs vehicle control (protein CLI00016468.1 KINETOPLASTID MEMBRANE PROTEIN-11): 0.73
- fold change vs vehicle control (protein LINJ.03.0240 RIBOSOMAL PROTEIN L38, PUTATIVE): 1.02
- fold change vs vehicle control (protein LINJ.11.0780 40S RIBOSOMAL PROTEIN S21, PUTATIVE): 1.05
- fold change (protein LINJ.11.0960 40S RIBOSOMAL PROTEIN S5, vehicle control = 1): 0.98
- fold change vs vehicle control (protein LINJ.13.0990 […] SUBUNIT 2, PUTATIVE): 1.26
- fold change vs vehicle control (protein LINJ.15.0330 RIBONUCLEOPROTEIN P18, MITOCHONDRIAL PRECURSOR, PUTATIVE): 0.97
- fold change (protein LINJ.19.0090 FIBRILLARIN, PUTATIVE, vehicle control = 1): 1.04
- fold change relative to vehicle control (protein LINJ.23.0860, 3-KETOACYL-COA THIOLASE, PUTATIVE): 1.02
- fold change relative to vehicle control (protein LINJ.24.2300, 60S RIBOSOMAL PROTEIN L12, PUTATIVE): 1.04
- fold change vs vehicle control (protein LINJ.25.2230 SUCCINYL-COA SYNTHETASE ALPHA SUBUNIT, PUTATIVE): 0.97
- fold change vs vehicle control (protein LINJ.26.1630 40S RIBOSOMAL PROTEIN S33, PUTATIVE): 1.04
- fold change vs vehicle control (protein LINJ.28.1100 RIBOSOMAL PROTEIN S20, PUTATIVE): 1.02
- fold change relative to vehicle control (protein LINJ.28.1940, REPLICATION FACTOR A, 51KDA SUBUNIT, PUTATIVE): 1.1
- fold change (protein LINJ.28.2280 DYNEIN LIGHT CHAIN LC6, FLAGELLAR OUTER ARM, PUTATIVE, vehicle control = 1): 0.9
- fold change (protein LINJ.28.2870 PROTEIN PHOSPHATASE 4 CATALYTIC SUBUNIT, PUTATIVE, vehicle control = 1): 0.91
- fold change relative to vehicle control (protein LINJ.31.1600, […] OXIDASE VIII (COX VIII), PUTATIVE): 1.19
- fold change relative to vehicle control (protein LINJ.33.1730, CYCLOPHILIN 4, PUTATIVE): 1.08
- fold change vs vehicle control (protein LINJ.34.0670 PROTEASOME REGULATORY NON-ATP-ASE SUBUNIT 11, PUTATIVE,19S PROTEASOME REGULATORY SUBUNIT): 0.97
- fold change vs vehicle control (protein LINJ.36.0780 PROTEIN KINASE, PUTATIVE,MITOGEN-ACTIVATED PROTEIN KINASE, PUTATIVE): 1.26
- fold change relative to vehicle control (protein LINJ.36.3960, BASIC TRANSCRIPTION FACTOR 3A, PUTATIVE): 1.58
- fold change relative to vehicle control (protein LINJ.36.4080, HY[…], CONSERVED): 1.32
- fold change (protein LINJ.36.4180 HS1VU COMPLEX PROTEOLYTIC SUBUNIT-LIKE, vehicle control = 1): 0.93
- fold change vs vehicle control (protein LINJ.[…] LONG-CHAIN-FATTY-ACID-COA LIGASE, PUTATIVE): 0.9
- fold change (protein LMJF.01.0570 TRIC[…], PUTATIVE, vehicle control = 1): 0.92
- fold change relative to vehicle control (protein LMJF.03.0200, DELTA-1-PYRROLINE-5-CARBOXYLATE DEHYDROGENASE, PUTATIVE): 1.07
- fold change (protein LMJF.03.0230 LONG CHAIN FATTY ACYL COA SYNTHETASE, PUTATIVE, vehicle control = 1): 1
- fold change (protein LMJF.03.0980 […] 2 ALPHA SUBUNIT, PUTATIVE, vehicle control = 1): 1.01
- fold change vs vehicle control (protein LMJF.04.0630 HY[…], CONSERVED): 1.07
- fold change vs vehicle control (protein LMJF.04.1230 actin): 1.04
- fold change (protein LMJF.05.0100 PHOSPHOPROTEIN PHOSPHATASE, PUTATIVE, vehicle control = 1): 0.91
- fold change (protein LMJF.05.0280 PROTEIN TYROSINE PHOSPHATASE, PUTATIVE, vehicle control = 1): 0.99
- fold change (protein LMJF.05.0510 ATPASE ALPHA SUBUNIT, vehicle control = 1): 1.08
- fold change (protein LMJF.05.1040 STOMATIN-LIKE PROTEIN, vehicle control = 1): 0.92
- fold change (protein LMJF.06.0650 LANOSTEROL SYNTHASE, PUTATIVE, vehicle control = 1): 0.95
- fold change vs vehicle control (protein LMJF.07.0700 TOPOISOMERASE-RELATED FUNCTION PROTEIN-LIKE PROTEIN): 1.1
- fold change (protein LMJF.07.1000 RNA BINDING PROTEIN-LIKE PROTEIN, vehicle control = 1): 0.88
- fold change relative to vehicle control (protein LMJF.07.1140, PEPTIDE […] REDUCTASE-LIKE): 1.06
- fold change (protein LMJF.08.0510 RIBOSE-PHOSPHATE PYROPHOSPHOKINASE, PUTATIVE, vehicle control = 1): 0.91
- fold change vs vehicle control (protein LMJF.08.0550 TRANSLATION INITIATION FACTOR-LIKE PROTEIN): 0.9
- fold change relative to vehicle control (protein LMJF.08.1030, cathepsin L-like protease): 1.03
- fold change vs vehicle control (protein LMJF.08.1100 HYPOTHETICAL PROTEIN, CONSERVED): 0.98
- fold change vs vehicle control (protein LMJF.09.1010 HYPOTHETICAL PROTEIN, CONSERVED): 0.75
- fold change relative to vehicle control (protein LMJF.09.1120, MIT[…] BINDING PROTEIN 2,MRP2, GBP25): 1.14
- fold change vs vehicle control (protein LMJF.09.1260 HYPOTHETICAL PROTEIN, CONSERVED): 0.95
- fold change (protein LMJF.10.0210 NUCLEOLAR PROTEIN, PUTATIVE, vehicle control = 1): 1.01
- fold change vs vehicle control (protein LMJF.10.0310 PROTEIN TRANSPORT PROTEIN SEC23, PUTATIVE): 1.31
- fold change (protein LMJF.11.0590 3-[…]-COA C[…] SUBUNIT, PUTATIVE, vehicle control = 1): 1
- fold change relative to vehicle control (protein LMJF.11.0630, AMINOPEPTIDASE, PUTATIVE,METALLO-PEPTIDASE, CLAN MF, FAMILY M17): 0.94
- fold change vs vehicle control (protein LMJF.11.1050 PRETRA[…], ALPHA SUBUNIT, PUTATIVE,SEC61-LIKE (PRETRA[…]) PROTEIN, PUTATIVE): 1.07
- fold change (protein LMJF.11.1160 PROTEIN TRANSPORT PROTEIN SEC31, PUTATIVE, vehicle control = 1): 1.26
- fold change (protein LMJF.12.0030 PROTEASOME BETA-1 SUBUNIT, PUTATIVE, vehicle control = 1): 0.94
- fold change vs vehicle control (protein LMJF.12.0210 […] […]1L8 3, PUTATIVE): 0.95
- fold change relative to vehicle control (protein LMJF.12.0530, GLUCOSE-6-PHOSPHATE ISOMERASE): 1.09
- fold change (protein LMJF.12.0630 ALANINE AMINOTRANSFERASE, vehicle control = 1): 0.93
- fold change vs vehicle control (protein LMJF.13.1230 40S RIBOSOMAL PROTEIN S4, PUTATIVE): 1.05
- fold change vs vehicle control (protein LMJF.14.0310 PROTEASOME ALPHA 3 SUBUNIT, PUTATIVE): 0.96
- fold change (protein LMJF.14.0660 FATTY ACID ELONGASE, PUTATIVE, vehicle control = 1): 1.02
- fold change (protein LMJF.14.0670 FATTY ACID ELONGASE, PUTATIVE, vehicle control = 1): 0.94
- fold change vs vehicle control (protein LMJF.14.0680 FATTY ACID ELONGASE, PUTATIVE): 1.14
- fold change (protein LMJF.14.0990 ADP/ATP MIT[…]-LIKE PROTEIN, vehicle control = 1): 1.25
- fold change vs vehicle control (protein LMJF.14.1160 ENOLASE): 1.02
- fold change (protein LMJF.14.1440 HYPOTHETICAL PROTEIN, CONSERVED (cytoskeleton associated protein, putative), vehicle control = 1): 0.82
